Data: patent publication US10745382B2 (BRISTOL-MYERS SQUIBB COMPANY, priority 2015, dated 2020)

Target: T1, PD-1/PD-L1 (Homo sapiens, UniProt Q9NZQ7)
T1 construct: made in house; host or cells: HEK293T
Assay: PD-1/PD-L1 Homogenous Time-Resolved Fluorescence (HTRF) binding assay
Details: PD-L1-His 10 nM, PD-1-Ig 20 nM; value given as range class; read-out: Range or IC50
In short: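 Additional pairs run were PD-1-Ig with PD-L2-His (20 & 5 nM) and CD80-His with PD-L1-Ig (100 & 10 nM), all human proteins. Buffer: dPBS plus 0.1% BSA, 0.05% Tween-20; time-resolved FRET read-out via 1 nM Eu-cryptate anti-Ig and 20 nM APC anti-His, final concentrations.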

T1 sequence (Q9NZQ7 with tags, fused parts or gaps): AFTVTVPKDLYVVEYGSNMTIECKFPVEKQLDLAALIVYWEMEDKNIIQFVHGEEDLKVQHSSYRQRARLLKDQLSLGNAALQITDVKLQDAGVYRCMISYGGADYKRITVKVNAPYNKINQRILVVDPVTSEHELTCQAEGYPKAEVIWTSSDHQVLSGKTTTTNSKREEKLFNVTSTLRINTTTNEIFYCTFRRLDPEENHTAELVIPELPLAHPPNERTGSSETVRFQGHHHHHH

IC50, 0.21 to 10 nM:
Cc1c(COc2cc(OCc3cncc(C#N)c3)c(CN3CCCC[C@H]3C(=O)O)cc2Cl)cccc1-c1cccc(OCCCNCC(C)(C)CO)c1C [Example 2234, (2S)-1-(5-chloro-2-((5-cyanopyridin-3-yl)methoxy)-4-((3′-(3-(3-hydroxy-2,2-dimethylpropylamino)propoxy)-2,2′-dimethylbiphenyl-3-yl)methoxy)benzyl)piperidine-2-carboxylic Acid]
Cc1c(COc2cc(OCc3cncc(C#N)c3)c(CN3CCCC[C@H]3C(=O)O)cc2Cl)cccc1-c1cccc(OCCCNCC(O)CO)c1C (stereo partly drawn) [Example 2235, (2S)-1-(5-chloro-2-((5-cyanopyridin-3-yl)methoxy)-4-((3′-(3-(2,3-dihydroxypropylamino)propoxy)-2,2′-dimethylbiphenyl-3-yl)methoxy)benzyl)piperidine-2-carboxylic Acid]
Cc1c(COc2cc(OCc3cncc(C#N)c3)c(CN3CCCC[C@H]3C(=O)O)cc2Cl)cccc1-c1cccc(OCCCN(CCO)Cc2ccccc2)c1C [Example 2236, (2S)-1-(4-((3′-(3-(benzyl(2-hydroxyethyl)amino)propoxy)-2,2′-dimethylbiphenyl-3-yl)methoxy)-5-chloro-2-((5-cyanopyridin-3-yl)methoxy)benzyl)piperidine-2-carboxylic Acid]
Cc1c(COc2cc(OCc3cncc(C#N)c3)c(CN3CCCC[C@H]3C(=O)O)cc2Cl)cccc1-c1cccc(OCCCN[C@@H](CO)C(C)C)c1C [Example 2237, (2S)-1-(5-chloro-2-((5-cyanopyridin-3-yl)methoxy)-4-((3′-(3-((R)-1-hydroxy-3-methylbutan-2-ylamino)propoxy)-2,2′-dimethylbiphenyl-3-yl)methoxy)benzyl)piperidine-2-carboxylic Acid]
Cc1c(COc2cc(OCc3cncc(C#N)c3)c(CN3CCCC[C@H]3C(=O)O)cc2Cl)cccc1-c1cccc(OCCCN[C@H](CO)C(C)C)c1C [Example 2238, (2S)-1-(5-chloro-2-((5-cyanopyridin-3-yl)methoxy)-4-((3′-(3-((S)-1-hydroxy-3-methylbutan-2-ylamino)propoxy)-2,2′-dimethylbiphenyl-3-yl)methoxy)benzyl)piperidine-2-carboxylic Acid]
Cc1c(COc2cc(OCc3cncc(C#N)c3)c(CN[C@@](C)(CO)C(=O)O)cc2Cl)cccc1-c1cccc(OCCCN2CCC[C@@H](C(=O)O)C2)c1C [Example 2239, (3R)-1-(3-(3′-((4-(((S)-2-carboxy-1-hydroxypropan-2-ylamino)methyl)-2-chloro-5-((5-cyanopyridin-3-yl)methoxy)phenoxy)methyl)-2,2′-dimethylbiphenyl-3-yloxy)propyl)piperidine-3-carboxylic Acid]
Cc1c(COc2cc(OCc3cncc(C#N)c3)c(CN3CCCC[C@H]3C(=O)O)cc2Cl)cccc1-c1cccc(OCCCN2C[C@@H](O)C[C@H]2C(=O)O)c1C [Example 2240, (2S)-1-(4-((3′-(3-((2S,4S)-2-carboxy-4-hydroxypyrrolidin-1-yl)propoxy)-2,2′-dimethylbiphenyl-3-yl)methoxy)-5-chloro-2-((5-cyanopyridin-3-yl)methoxy)benzyl)piperidine-2-carboxylic Acid]
Cc1c(COc2cc(OCc3cncc(C#N)c3)c(CN3CCCC[C@H]3C(=O)O)cc2Cl)cccc1-c1cccc(OCCCN2C[C@H](O)C[C@H]2C(=O)O)c1C [Example 2241, (2S)-1-(4-((3′-(3-((2S,4R)-2-carboxy-4-hydroxypyrrolidin-1-yl)propoxy)-2,2′-dimethylbiphenyl-3-yl)methoxy)-5-chloro-2-((5-cyanopyridin-3-yl)methoxy)benzyl)piperidine-2-carboxylic Acid]
Cc1c(COc2cc(OCc3cncc(C#N)c3)c(CN3CCCC[C@H]3C(=O)O)cc2Cl)cccc1-c1cccc(OCCCNC[C@H](O)C(=O)O)c1C [Example 2242, (2S)-1-(4-((3′-(3-((S)-2-carboxy-2-hydroxyethylamino)propoxy)-2,2′-dimethylbiphenyl-3-yl)methoxy)-5-chloro-2-((5-cyanopyridin-3-yl)methoxy)benzyl)piperidine-2-carboxylic Acid]
COC(=O)[C@@H]1CCCCN1CCCOc1cccc(-c2cccc(COc3cc(OCc4cncc(C#N)c4)c(CN4CCCC[C@H]4C(=O)O)cc3Cl)c2C)c1C [Example 2243, (2S)-1-(5-chloro-2-((5-cyanopyridin-3-yl)methoxy)-4-((3′-(3-((S)-2-(methoxycarbonyl)piperidin-1-yl)propoxy)-2,2′-dimethylbiphenyl-3-yl)methoxy)benzyl)piperidine-2-carboxylic Acid]
Cc1c(COc2cc(OCc3cncc(C#N)c3)c(CN3CCCC[C@H]3C(=O)O)cc2Cl)cccc1-c1cccc(OCCCN2CCCCC2C(N)=O)c1C (stereo partly drawn) [Example 2244, (2S)-1-(4-((3′-(3-(2-carbamoylpiperidin-1-yl)propoxy)-2,2′-dimethylbiphenyl-3-yl)methoxy)-5-chloro-2-((5-cyanopyridin-3-yl)methoxy)benzyl)piperidine-2-carboxylic Acid]
Cc1c(COc2cc(OCc3cncc(C#N)c3)c(CN3CCCC[C@H]3C(=O)O)cc2Cl)cccc1-c1cccc(OCCCN2CCCCC2C)c1C (stereo partly drawn) [Example 2245, (2S)-1-(5-chloro-2-((5-cyanopyridin-3-yl)methoxy)-4-((2,2′-dimethyl-3′-(3-(2-methylpiperidin-1-yl)propoxy)biphenyl-3-yl)methoxy)benzyl)piperidine-2-carboxylic Acid]
Cc1c(COc2cc(OCc3cncc(C#N)c3)c(CN3CCCC[C@H]3C(=O)O)cc2Cl)cccc1-c1cccc(OCCCN2CCC(N(C)C(=O)OC(C)(C)C)CC2)c1C [Example 2246, (2S)-1-(4-((3′-(3-(4-(tert-butoxycarbonyl(methyl)amino)piperidin-1-yl)propoxy)-2,2′-dimethylbiphenyl-3-yl)methoxy)-5-chloro-2-((5-cyanopyridin-3-yl)methoxy)benzyl)piperidine-2-carboxylic Acid]
Cc1c(COc2cc(OCc3cncc(C#N)c3)c(CN3CCCC[C@H]3C(=O)O)cc2Cl)cccc1-c1cccc(OCCCN2CC[C@H](F)C2)c1C [Example 2247, (2S)-1-(5-chloro-2-((5-cyanopyridin-3-yl)methoxy)-4-((3′-(3-((S)-3-fluoropyrrolidin-1-yl)propoxy)-2,2′-dimethylbiphenyl-3-yl)methoxy)benzyl)piperidine-2-carboxylic Acid]
Cc1c(COc2cc(OCc3cncc(C#N)c3)c(CN3CCCC[C@H]3C(=O)O)cc2Cl)cccc1-c1cccc(OCCCN2CCC(N3CCOCC3)CC2)c1C [Example 2248, (2S)-1-(5-chloro-2-((5-cyanopyridin-3-yl)methoxy)-4-((2,2′-dimethyl-3′-(3-(4-morpholinopiperidin-1-yl)propoxy)biphenyl-3-yl)methoxy)benzyl)piperidine-2-carboxylic Acid]
